Data reported in patent US8377422B2, “Carboxamide derivatives having cooling properties” (Givaudan S.A., priority 2007, dated 2013).

Experiments:
panelists = experiment: Cooling intensity: panel tasting of aqueous solutions against menthol at 2 ppm; type: in vivo, human; conditions: for Concentration: aqueous solution with cooling intensity similar to or slightly higher than menthol at 2 ppm, tasted by small group of panelists
panelist = experiment: Application in toothpaste: cooling sensation after brushing; type: in vivo, human; conditions: toothgel base with 0.10 g of 10% by weight ethanol solution and 0.30 g saccharin; teeth brushed, mouth rinsed with water
Protocol: 0.10 g of (1R,2S,5R)—N-(2-hydroxy-3-phenoxypropyl)-2-isopropyl-5-methylcyclohexane-carboxamide (at 10% by weight solved in ethanol) and 0.30 g saccharin were mixed in a toothgel base.
A piece of the thus prepared toothpaste was put on a toothbrush and a panelist's teeth were brushed. The mouth was rinsed with water and the water spat out. […] The cooling sensation was perceived for over 50 minutes.

Row | Structure (SMILES) | Concentration (panelists) [ppm] | also measured
1 | COCCNC(=O)[C@@H]1C[C@H](C)CC[C@H]1C(C)C [(1R,2S,5R)-2-isopropyl-N-(2-methoxyethyl)-5-methylcyclohexanecarboxamide] | 1.0 | 
2 | CC(C)OCCCNC(=O)[C@@H]1C[C@H](C)CC[C@H]1C(C)C [(1R,2S,5R)-N-(3-isopropoxypropyl)-2-isopropyl-5-methylcyclohexanecarboxamide] | 0.1 | 
3 | CC(C)[C@@H]1CC[C@@H](C)C[C@H]1C(=O)NCCCOc1ccccn1 [Ex. 2.5, (1R,2S,5R)-2-isopropyl-5-methyl-N-(3-(pyridin-2-yloxy)propyl)cyclohexane-carboxamide] | 0.02 | 
4 | CC(C)[C@@H]1CC[C@@H](C)C[C@H]1C(=O)NCCOc1ccccc1 [Ex. 2.7, (1R,2S,5R)-2-isopropyl-5-methyl-N-(2-phenoxyethyl)cyclohexanecarboxamide] | 0.01 | cooling intensity relative to prior art compound (1R,2S,5R)-2-isopropyl-N-(2-methoxyethyl)-5-methylcyclohexane-carboxamide (panelists; compared with the prior art compound): about 100 times higher
5 | Cc1ccccc1OCCCNC(=O)[C@@H]1C[C@H](C)CC[C@H]1C(C)C [Example 1, (1R,2S,5R)-2-isopropyl-5-methyl-N-(3-(o-tolyloxy)propyl)cyclohexane-carboxamide] |  | melting point: 89.4 to 91.1 °C
6 | CC(C)[C@@H]1CC[C@@H](C)C[C@H]1C(=O)NCC(O)COc1ccccc1 (stereo partly drawn) [Example 2.2, (1R,2S,5R)—N-(2-hydroxy-3-phenoxypropyl)-2-isopropyl-5-methylcyclohexane-carboxamide] |  | cooling sensation felt by the panelist (panelist): long lasting cooling sensation; duration of perceived cooling sensation (panelist): over 50 minutes
7 | CC1CCC(C(C)C)C(O)C1 (stereo not shown) [I-Menthol] | 2.0 | 
8 | CCNC(=O)C1CC(C)CCC1C(C)C (stereo not shown) [WS-3, N-ethyl p-menthanecarboxamide] | 1.5 | 
